Assay results as given in article PMC9500072, “Topical application of an irreversible small molecule inhibitor of lysyl oxidases ameliorates skin scarring and fibrosis” (Nature Communications, 2022).
pIC50: −log10 of the molar value. Where “and” joins values, the source holds several entries; their conditions need not be identical. Identical values can stand only once. Like-named read-outs stand apart in the source and are kept apart here.

Key:
Human Fibroblast LOX = molecular target: T1, Human Fibroblast LOX (Homo sapiens, UniProt P28300); experiment: Amine oxidase inhibition profile, human fibroblast LOX; type: biochemical; settings: for pIC50: read-out: Human Fibroblast LOX IC50
T1 construct: Fibroblast LOX; endogenous in cells; host or cells: human fibroblasts
T1 sequence (P28300 169-417): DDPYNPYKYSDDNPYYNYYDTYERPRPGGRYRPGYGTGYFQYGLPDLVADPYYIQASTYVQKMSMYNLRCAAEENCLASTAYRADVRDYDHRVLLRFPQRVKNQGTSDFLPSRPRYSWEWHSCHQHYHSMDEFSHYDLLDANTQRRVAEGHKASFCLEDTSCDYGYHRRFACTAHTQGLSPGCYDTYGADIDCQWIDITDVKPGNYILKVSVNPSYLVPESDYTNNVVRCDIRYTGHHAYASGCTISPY
Experimental: The measurement of the enzymatic activity of all lysyl oxidase family members was based on the detection of hydrogen peroxide with an Amplex-Red oxidation assay, as previously described; miniaturized in 384 well formats, with the appropriate combination of substrate and assay buffer for each individual enzyme. After a 30 min pre-incubation of the enzyme at 37 °C with the test compound (or with different incubation times for the time-dependency assay), one volume of reaction mixture containing 120 μM Amplex Red (AR) (Life Technologies), 1.5 U/mL horseradish peroxidase (HRP) (Sigma-Aldrich) and the specific substrate was added to each sample. The relative fluorescence units (RFU) were then measured every 2.5 min for 30 min at 37 °C, excitation 565 nm and emission 590, on a BMG Clariostar Microplate Reader. All the substrates were used at concentrations corresponding to their Km towards the corresponding enzyme, or with a range of different concentrations for the substrate competition experiments.
Lysyl oxidases assay buffer contained 1.2 M urea, 50 mM sodium borate buffer, pH 8.2 and 100 µM β-aminoproprionitrile (BAPN, Sigma-Aldrich) was used for low control.
Supplem entary Materi als:
Supplementary Table S1: Amine oxidase inhibition profile of PXS -4787, PXS-6302 and
Supplementary Table S2: Perm eability profile of PXS -6302.

Human Recombinant SSAO = molecular target: T2, Human Recombinant SSAO (Homo sapiens, UniProt Q16853); experiment: Compound oxidation assay (substrate propensity) by SSAO; type: biochemical; settings: for Oxidation by SSAO (hydrogen peroxide generated relative to DMSO): single concentration 30 µM
T2 sequence (Q16853 1-763): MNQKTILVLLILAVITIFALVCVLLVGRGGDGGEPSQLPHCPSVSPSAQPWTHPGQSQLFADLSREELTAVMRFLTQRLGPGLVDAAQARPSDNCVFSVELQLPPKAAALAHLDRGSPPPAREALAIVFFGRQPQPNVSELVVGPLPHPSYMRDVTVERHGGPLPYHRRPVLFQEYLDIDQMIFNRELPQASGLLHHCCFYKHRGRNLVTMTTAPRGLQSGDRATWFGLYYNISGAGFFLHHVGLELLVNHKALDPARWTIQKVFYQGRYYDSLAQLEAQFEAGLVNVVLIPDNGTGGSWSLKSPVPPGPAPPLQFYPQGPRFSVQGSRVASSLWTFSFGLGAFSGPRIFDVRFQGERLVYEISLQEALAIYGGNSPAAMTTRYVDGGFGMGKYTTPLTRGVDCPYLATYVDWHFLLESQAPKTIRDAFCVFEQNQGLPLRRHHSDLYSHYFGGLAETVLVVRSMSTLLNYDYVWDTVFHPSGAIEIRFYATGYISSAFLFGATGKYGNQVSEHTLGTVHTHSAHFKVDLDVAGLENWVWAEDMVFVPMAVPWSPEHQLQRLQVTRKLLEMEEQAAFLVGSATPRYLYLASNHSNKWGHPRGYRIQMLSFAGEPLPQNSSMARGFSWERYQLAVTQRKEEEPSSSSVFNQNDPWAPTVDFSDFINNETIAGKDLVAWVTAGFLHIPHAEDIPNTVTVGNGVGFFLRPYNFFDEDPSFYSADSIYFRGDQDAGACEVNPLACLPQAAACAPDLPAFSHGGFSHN
Experimental: For compound oxidation assays, the amount of hydrogen peroxide generated at a single concentration (30 µM) of compound relative to DMSO was measured.
Data are expressed as mean ± SEM. Subsequent statistical analysis was performed with unpaired two-sided Student’s t tests. *p < 0.05, **p < 0.01, ***p < 0.001and ****p < 0.0001. Source data are provided as a Source Data file.
This assay determines the substrate propensity of a compound relative to background (dimethyl sulfoxide only). Compound oxidation by rhSSAO was measured by fluorometric assay. Briefly, rhSSAO was incubated for 2 h at 37 °C in HEPES buffer before the addition of an equal volume of Amplex Red ([…]), horseradish peroxidase (4 U/ml), and test compound in the same buffer. The kinetics of the formation of resorufin was measured immediately using Optima reader (BMG Labtech GmbH, Ortenburg, Germany), at 37 °C.

Row | Structure (SMILES) | Human Fibroblast LOX pIC50±SD (Human Fibroblast LOX) | pIC50 (Human Fibroblast LOX) | SSAO specificity (Fig 2F), oxidation, individual experiments (Human Recombinant SSAO; 30) | SSAO specificity (Fig 2F), oxidation, individual experiments (Human Recombinant SSAO; 60) | SSAO specificity (Fig 2F), oxidation, individual experiments (Human Recombinant SSAO; 90) | Oxidation by SSAO (hydrogen peroxide generated relative to DMSO) (Human Recombinant SSAO) | IC50 (Human Fibroblast LOX; read-out: Human Fibroblast LOX pIC50±SD (converted)) [µM]
1 | N#CCCN [BAPN, β-aminoproprionitrile, reference compound] | 5.5 ± 0.1 | 5.52 | 1.24 and 1.43 and 1.55 and 1.3 and 1.39 | 2.24 and 2.72 and 2.02 and 1.5 and 1.72 | 4.91 and 2.48 and 2.66 and 3.66 |  | 
2 | NC/C=C(\F)CS(=O)(=O)c1ccccc1 [PXS-4787] |  | 5.28 |  |  |  | 1.3 | 
3 | NC/C=C(\F)C(F)(F)S(=O)(=O)c1ccccc1 [PXS-6302] |  | 5.35 | 1.48 and 1.33 and 1.2 and 1.19 and 1.18 and 1.24 and 1.1 and 1.3 and 1.37 and 1.13 and 1.23 | 1.4 and 1.33 and 1.41 | 1.53 and 2.99 and 4.36 | 1.3 | 3.98
